Entries after “also recorded” stand apart in the source; their conditions may differ.
Experiments:
[1] = test system: constrictive mouse model of trigeminal neuralgia; assay: Mechanical allodynia (Von Frey filament) after constriction of the maxillary nerve; format: in vivo; details: i.p. daily, sulforaphane 10 mg/kg; for mechanical allodynia (analgesic effect): NRF2−/− mice, exemestane 10 mg/kg, JQ-1 40 mg/kg
NRF2 target genes [2] = assay: RNA-sequencing of primary human dermal fibroblasts; format: cell-based; details: 48 hours, 0.25 μM JQ-1
Protocol: RNA-sequencing RNA sequencing was performed as previously described (See Shin, J. Y. et al. Sci Transl Med 11, eaaw0790 (2019)). To assess the transcriptional signature of JQ-1, total RNA was isolated from three independent human fibroblast lines after 48 hours of treatment with DMSO or 0.25 μM JQ-1 using TRizol and RNeasy isolation columns (Qiagen) as per the manufacturer's instructions. DNA was digested with DNase treatment. All samples had RNA integrity numbers 9.60 or higher as measured with an Agilent 2100 Bioanalyzer. mRNA was enriched by poly-A selection, prepped using an Illumina TruSeq mRNA sample preparation kit, and sequenced by Illumina HiSeq 2000.
Differential Gene Expression and Pathway Enrichment Analyses Differential gene expression analysis was performed using BioJupies 126.

[3] = test system: constrictive mouse model of trigeminal neuralgia; assay: Cold allodynia (ice-cold acetone) after constriction of the maxillary nerve; format: in vivo; details: for cold allodynia (ice-cold acetone): WT mice, i.p. daily for two days before surgery and daily after behavior testing, sulforaphane, exemestane, letrozole 10 mg/kg, JQ-1 40 mg/kg, ascorbate 100 mg/kg, vs vehicle
Protocol: Constriction of the Maxillary Nerve Constriction of the maxillary division of trigeminal nerve was performed as previously described (See Benedetti, A., et al., Biochimica Et Biophysica Acta Bba—Lipids Lipid Metabolism 620, 281-296 (1980) and Vos, B., et al J Neurosci 14, 2708-2723 (1994)). The procedure was performed under direct visualization and control with a surgical microscope. Mice were first anesthetized with ketamine (100 mg/kg, i.p.) and xylazine (12.5 mg/kg, i.p.) and monitored by pinching the skin between the toes with forceps and monitoring for withdrawal. Mice were restrained with adhesive tape to a sterilized polystyrene board. Upon sufficient anesthesia, the scalp was shaved and an anterior to posterior skin incision was made at the midline to expose the nasal and maxillary bones. The maxillary nerve was exposed and carefully dissected free from the surrounding connective tissue. The distal end of the maxillary nerve was then loosely constricted using 8-0 silk sutures as a ligature. The sutures were tied using a slip knot followed by a normal knot, after which any remaining suture was cut free. The incision was then closed with a 4-0 silk suture. In the sham procedure, the left maxillary nerve was exposed but not constricted. Mice were monitored and rehydrated until fully recovered from anesthesia.
Pharmacologic Treatments Mice were dosed with either sulforaphane (10 mg/kg, i.p.), exemestane (10 mg/kg, i.p.), letrozole (10 mg/kg, i.p.), (+)-JQ-1 (40 mg/kg, i.p.), (−)-JQ-1 (40 mg/kg, i.p.), or ascorbate (100 mg/kg, i.p.) as indicated below. Mice were first dosed daily for two days before surgery and again daily just after behavior testing. For local exemestane treatment, exemestane (5 μL, 25 μg total) was applied directly to the maxillary nerve. Mice received a single dose during surgery. Mice were dosed with AM-0902 (30 mg/kg, p.o.). Mice were treated with AM-0902 were dosed 30 min prior to behavior testing. Mice were dosed with tamoxifen (75 mg/kg, i.p.). Mice were dosed once every 24 hrs over 5 consecutive days. Behavioral and molecular tests were only performed 7 or more days after the final tamoxifen injection.
Cold Allodynia Cold allodynia was assessed in C57BL/6J, TRPA1^+/+, TRPA1^−/−, Keap1(f/f), and Keap1(f/f)/CMV-CreER mice using ice-cold acetone as previously outlined (See Yoon, C., et al., Pain 59, 369-376 (1994)). Animals were placed individually in transparent plastic boxes and allowed to acclimatize to the environment for at least 30 min before testing. After habituation, 20 μl of cold acetone was applied to the ligated vibrissal pad skin surface. Cold allodynia was measured as the average time spent wiping the region in a 60 s period, with a maximum of 5 seconds between bouts of wiping. Allodynia was measured three times with 10 min between intervals. Changes in cold allodynia were considered relative to sham- or vehicle-treated animal controls. Behavior was assessed concomitantly or in a blocked manner with consideration for both genotype and treatment.

NRF2 target genes [4] = assay: Quantitative PCR of NRF2 target genes from maxillary nerves; format: in vivo, mouse; details: qPCR normalized to Actb, 11 days of treatment, i.p.; for Hmox1 expression in maxillary nerves / Prdx1 expression in maxillary nerves / Txnrd1 expression in maxillary nerves: exemestane 10 or JQ-1 40 mg/kg
Protocol: FIGS. 17A-17J show differential upregulation of NRF2 target genes after treatment with exemestane and JQ-1. Quantitative PCR analysis of Ngo1, Hmox1 Txnrd1, Prdx1, and Gclc, as indicated, normalized to Actb from maxillary nerves of mice after 11 days of treatment with either exemestane (FIGS. 17A-17E; 10 mg/kg, i.p.) or JQ-1 (FIGS. 17F-17J; 40 mg/kg, i.p.) compared to vehicle is shown. Points represent individual mice. Median and range depicted. *=P<0.05. **=P<0.01, and ns=P>0.05 by two-tailed unpaired Student's t-test.
DNA/RNA Isolation. PCR, and Quantitative-PCR (q-PCR) Total cellular or tissue DNA/RNA was extracted using the DNeasy Blood & Tissue Kit (Qiagen) for DNA or RNeasy Plus Universal Kit (Qiagen) for RNA per the manufacturer's instructions. PCR was performed with the Platinum Taq DNA Polymerase High Fidelity Kit (Invitrogen), whereas q-PCR was performed with the TaqMan RNA-to-Ct I-Step Kit (Applied Biosystems).

NRF2 target genes [5] = details: corneal fibroblasts and monocytes; cited from earlier work
NRF2 target genes [6] = assay: Upregulation of canonical NRF2 target genes (no method given); format: cell-based
NRF2 = assay: NRF2/MAP2 immunostaining in trigeminal ganglia; format: in vivo, mouse; details: immunohistochemistry 24 h after the fourth dose; 10 mg/kg, i.p.

SMILES: Cc1sc2c(c1C)C(c1ccc(Cl)cc1)=N[C@@H](CC(=O)OC(C)(C)C)c1nnc(C)n1-2 [JQ-1, (S)-tert-butyl 2-(4-(4-chlorophenyl)-2,3,9-trimethyl-6H-thieno[3,2-f][1,2,4]triazolo[4,3-a][1,4]diazepin-6-yl)acetate]
- mechanical allodynia (analgesic effect) [1]: lowers
- expression of canonical NRF2 target genes (NQO1, FTL, PRDX1, TXN, EGR1) (NRF2 target genes [2]): upregulated a number of canonical NRF2 target genes
- rank of the NRF2 pathway in gene ontology and genetic network analyses (NRF2 target genes [2]): second most upregulated pathway
- cold allodynia (ice-cold acetone) [3]: much less sensitive
- cold allodynia (ice-cold acetone) ([3]; listed as (+)-JQ-1): lowered
- Hmox1 expression in maxillary nerves (NRF2 target genes [4]): most potently upregulated
- Prdx1 expression in maxillary nerves (NRF2 target genes [4]): upregulated
- Txnrd1 expression in maxillary nerves (NRF2 target genes [4]): did not increase
- upregulation of NQO1 and HMOX1 (NRF2 target genes [5]): upregulates NQO1 and HMOX1

SMILES: C=C1C[C@@H]2[C@H](CC[C@]3(C)C(=O)CC[C@@H]23)[C@@]2(C)C=CC(=O)C=C12 [exemestane, 6-methylenandrosta-1,4-diene-3,17-dione]
- mechanical allodynia (analgesic effect) [1]: lose their analgesic effects
- cold allodynia (ice-cold acetone) [3]: much less sensitive; also recorded: lowered
- cold allodynia ([3]; single local treatment, exemestane 25 μg/site applied directly to the maxillary nerve during surgery): lessened
- Nqo1 expression in maxillary nerves (NRF2 target genes [4]; exemestane 10 mg/kg): upregulated
- Hmox1 expression in maxillary nerves (NRF2 target genes [4]): upregulated
- Prdx1 expression in maxillary nerves (NRF2 target genes [4]): upregulated
- Txnrd1 expression in maxillary nerves (NRF2 target genes [4]): upregulated
- induction of the canonical NRF2 target Nqo1 (NRF2 target genes [6]): upregulated the canonical NRF2 target Ngo1
- NRF2 expression in neurons of the trigeminal ganglion (NRF2): robustly increased NRF2 expression

SMILES: C[S+]([O-])CCCCN=C=S (stereo not shown) [sulforaphane, 1-isothiocyanato-4-(methanesulfinyl)butane]
- mechanical allodynia (analgesic effect) [1]: lose their analgesic effects
- mechanical allodynia ([1]; TRPA1−/− mice, compared with genetic deletion of TRPA1 alone): did not lower
- cold allodynia (ice-cold acetone) [3]: less sensitive
- NRF2 expression in neurons of the trigeminal ganglion (NRF2): robustly increased NRF2 expression

From US20250064846A1, “TREATMENT AND PREVENTION OF TRIGEMINAL NEURALGIA” (THE JOHNS HOPKINS UNIVERSITY, priority 2022, published 2025)
